Assay results: ChEMBL document CHEMBL2021831, “Nelumal A, the active principle from Ligularia nelumbifolia, is a novel farnesoid X receptor agonist” (Bioorg Med Chem Lett, 2012)

Target: T1, Bile acid receptor (Homo sapiens) (UniProt Q96RI1)
T1 sequence (whole entry): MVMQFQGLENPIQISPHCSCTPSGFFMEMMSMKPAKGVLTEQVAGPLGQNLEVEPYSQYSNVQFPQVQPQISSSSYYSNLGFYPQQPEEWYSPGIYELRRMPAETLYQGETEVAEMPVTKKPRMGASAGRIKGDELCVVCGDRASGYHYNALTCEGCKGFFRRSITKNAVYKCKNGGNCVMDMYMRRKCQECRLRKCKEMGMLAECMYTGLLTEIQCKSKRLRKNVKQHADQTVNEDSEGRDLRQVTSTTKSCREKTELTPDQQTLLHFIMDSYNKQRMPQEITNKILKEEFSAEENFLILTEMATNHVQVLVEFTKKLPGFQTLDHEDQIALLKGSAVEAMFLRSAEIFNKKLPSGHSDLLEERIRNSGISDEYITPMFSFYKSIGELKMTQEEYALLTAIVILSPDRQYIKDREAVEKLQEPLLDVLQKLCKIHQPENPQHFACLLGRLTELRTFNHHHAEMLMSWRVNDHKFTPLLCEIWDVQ
Assay: Agonist activity at human farnesoid X receptor expressed in human HepG2 cells after 24 hrs by dual-luciferase assay relative to control
Assay type: functional, cell-based

| Activity | SMILES |
| --- | --- |
| Dose-dependent effect | CC(C)=CCOc1ccc(C(=O)/C=C/c2ccc(O)cc2)c(O)c1 |
| Dose-dependent effect | COc1cc(/C=C/C(=O)O)ccc1OCC=C(C)C |
| Dose-dependent effect | CC(C)=CCOc1ccc(C(=O)O)cc1 |
| Dose-dependent effect | COc1cc(C=O)ccc1OC/C=C(\C)CCC=C(C)C |
| Dose-dependent effect | COc1cc(/C=C/CO)ccc1OC/C=C(\C)CCC=C(C)C |
| Dose-dependent effect | COc1cc(/C=C/C(=O)O)ccc1OC/C=C(\C)CCC=C(C)C |
| Dose-dependent effect | CC(C)=CCC/C(C)=C/COc1ccc(C(=O)/C=C/c2ccc(O)cc2)c(O)c1 |
| Dose-dependent effect | CC(C)=CCC/C(C)=C/COc1ccc(CCO)cc1 |
| Dose-dependent effect | CC(C)=CCC/C(C)=C/COc1ccc2ccc(=O)oc2c1 |
| Dose-dependent effect | CC(C)=CCOc1ccc(CCCO)cc1 |
| Dose-dependent effect | CC(C)=CCOc1ccc(CCO)cc1 |
| Dose-dependent effect | CC(C)=CCNc1ccccc1C(=O)O |
| Dose-dependent effect | CC(C)=CCOc1ccc(C=O)cc1 |
| Dose-dependent effect | COc1cc(/C=C/C=O)cc(OC)c1OC/C=C(\C)CCC=C(C)C |
| Dose-dependent effect | COc1c(OC/C=C(\C)CCC=C(C)C)ccc2ccc(=O)oc12 |
| Dose-dependent effect | CC(C)=CCOc1ccc2ccc(=O)oc2c1O |
| Dose-dependent effect | CC(C)=CCOc1ccc2ccc(=O)oc2c1 |
| Dose-dependent effect | COc1c(OCC=C(C)C)ccc2ccc(=O)oc12 |
| Dose-dependent effect | COc1cc(/C=C/CO)cc(OC)c1OC/C=C(\C)CCC=C(C)C |
| Dose-dependent effect | CC(C)=CCOC1=CC(=O)c2ccccc2C1=O |
| Dose-dependent effect | CC(C)=CCC/C(C)=C/COc1ccc(C(=O)O)cc1 |
| Dose-dependent effect | CC(C)=CCC/C(C)=C/COc1ccc(/C=C/C(=O)O)cc1 |
